In article PMC6341082 (Translational Psychiatry, 2019):

How the values were obtained:
Adnp+/- mice [1] = experiment: Odor discrimination test; assay type: in vivo, mouse
Protocol: (§1) Experiments were performed as previously described[8],[30],[40]. […] The behavioral assays were then initiated together with a continuous drug application. For detailed description of the object recognition test and the social approach task, please see supplemental materials and methods. In the odor discrimination test, odors were presented on a suspended cotton swab to the test mouse placed into the clean cage with fresh shavings. Each mouse was tested during three consecutive 2-min periods for each odor, with 2-min intervals between presentations. The time that the mouse smelled the swab was recorded (beginning whenever the animal oriented its nostrils toward the cotton swab, within 2 cm or less)[8],[30]. The hanging wire test measuring the strength of the mouse paws by using the latency to fall off an inverted cage lid (placed 50 cm above the surface) onto a soft bedding (maximum time 90 sec), was performed as previously described[5],[40]. Data are expressed as mean ± SEM.

patients = details: cited from earlier work
Description: Together, these studies attest to preclinical efficacy, holding a promise for clinical effectiveness. […] Nevertheless, in a study performed in severely affected individuals suffering from progressive supranuclear palsy (PSP), belonging to the family of rapidly progressing frontotemporal neurodegener ...

Adnp+/- mice [2] = experiment: Social approach task (social recognition and social memory); assay type: in vivo, mouse
Protocol: (§2) Experiments were performed as previously described[8],[30],[40]. Three–six-month-old male mice were used, and NAP-CB was administered once daily (0.5 µg/5 µl/mouse) for one month. The behavioral assays were then initiated together with a continuous drug application. For detailed description of the object recognition test and the social approach task, please see supplemental materials and methods. In the odor discrimination test, odors were presented on a suspended cotton swab to the test mouse placed into the clean cage with fresh shavings. Each mouse was tested during three consecutive 2-min periods for each odor, with 2-min intervals between presentations. The time that the mouse smelled the swab was recorded (beginning whenever the animal oriented its nostrils toward the cotton swab, within 2 cm or less)[8],[30]. The hanging wire test measuring the strength of the mouse paws by using the latency to fall off an inverted cage lid (placed 50 cm above the surface) onto a soft bedding (maximum time 90 sec), was performed as previously described[5],[40]. Data are expressed as mean ± SEM.
Social approach: A plexiglas box was divided into three adjacent chambers, each 20 cm (length) × 40.5 cm (width) × 22 cm (height), separated by two removable doors. Steel wire pencil cups (10.16 cm (diameter), 10.8 cm (height)), www.kitchen-plus.com, were used as both containment for the target mice and as inanimate objects (weights prevented the mice from overturning the cups). […] The next day, each subject mouse was tested in an experiment with three phases, each 10-min long (measured with a simple timer): I and II, the habituation phases (ensuring no bias), and III, the experimental phase. […] Mouse movement and exploratory behavior were tracked and recorded using the EthoVision XT video tracking system and software (Noldus Inc. Leesburg, VA). The discrimination capacity (social memory) was analyzed using the formula: D2 = (b-a)/(b+a), where ‘a’ designated the time of exploration of the familiar mouse and 'b' designated the time of exploration of the novel mouse.

Adnp+/- mice [3] = experiment: Object recognition test; assay type: in vivo, mouse; details: male Adnp+/+ mice (Supplemental Fig. S2A, B)
Protocol: as §2, with “The hanging wire test measuring the strength of the mouse paws by using the latency to fall off an inverted cage lid (placed 50 cm above the surface) onto a soft bedding (maximum time 90 sec), was performed as previously described[5],[40].” left out
Object recognition: The test included two consecutive days of habituation (5 min per day) and the experimental day which consisted of the three phases. […] The time spent sniffing/touching each object was measured. Mouse movement and exploratory behavior were tracked and recorded using the EthoVision XT video tracking system and software (Noldus Inc. Leesburg, VA). […]

VGLUT1 = experiment: Immunohistochemistry; assay type: in vivo, mouse; details: male Adnp+/- mice
Protocol: Immunohistochemistry was carried out as previously described. Briefly, paraffin sections were deparaffinized, rehydrated in graded alcohols, and antigen retrieval was performed with citrate buffer pH 6. Endogenous peroxidase was blocked with 3% H2O2 in methanol and was followed by incubation in the appropriate blocking buffer for 30 min. Sections were incubated overnight at 4 °C with the primary antibodies against VGLUT1 (Santa Cruz Biotechnology, sc-13320). The secondary antibody used was Rabbit Anti-Goat IgG (EMD Millipore, AP106B). Immunoreactions were visualized with the aim of Avidin-Peroxidase (Sigma- Aldrich Chemical), and 3,3′-Diaminobenzidine (DAB, brown color, Sigma-Aldrich Chemical) was utilized as chromogen. Sections were then counterstained with hematoxylin (light blue color).
Sections were further examined under optical microscope Zeiss Axioplan-2 with the aid of a CCD camera (Nikon DS-5M) for observations of the slides. In average, 25 optical fields were examined from each group under a magnification of ×40. Measurements were performed with Image J software (1.43 u) in the areas of the hippocampus and the cortex. The results were expressed as area/mm^2 (as previously described[14]), representing the area of DAB positive signal in each photo divided by the total area of the same photo. An additional parameter measured was the Integrated Density, calculating and displaying […]: the product of Area and Mean Gray Value.

[4] = tested on: Slc17a7 gene encoding VGLUT1; experiment: Gene expression analysis (quantitative RT-PCR); assay type: in vivo, mouse
Protocol: Hippocampal and cerebral cortical RNA of mouse that were 7.5-month-old were extracted using TRI Reagent® (T9424, Sigma-Aldrich, MO, USA). A volume of 1 μg RNA/sample was then subjected to reverse transcription (RT) using qScript cDNA Synthesis Kit (Quanta Biosciences, Gaithersburg, MD, USA). Further Real-time PCR analysis was performed using PerfeCta^TM SYBR® Green FastMix^TM, Low ROX^TM (Cat. No. 95074–012, Quanta Biosciences, Gaithersburg, MD, USA) and the QuantStudio 12 K Flex Real-Time PCR System (Thermo Fisher Scientific, Waltham, MA, USA). RNA expression levels were determined using specific mouse primers: Slc17a7 gene encoding VGLUT1, sense 5′-[…]-3′, anti-sense 5′-[…]-3′. Hypoxanthine-guanine phosphoribosyltransferase (Hprt) was selected as a stable reference gene with appropriate primers for mouse, sense 5′-[…]-3′, anti-sense 5′-[…]-3′. Results are presented as 2^-ΔCT[42].

[5] = tested on: hippocampus of Adnp+/- mice; experiment: Diffusion tensor imaging (DTI) MRI of chronically treated brains; assay type: in vivo, mouse
Description: Seven–eight-month-old male mice underwent MRI on a 7.0 T/30 spectrometer (Bruker, Rheinstetten, Germany) using a volume coil for excitation and a rat quadrature coil for acquisition. The MRI protocol used here was the DTI.
DTI was obtained using a diffusion-weighted (DW) spin-echo echo-planar-imaging (EPI) pulse sequence with the following parameters: TR/TE = 4000/25 ms, Δ/δ = 10/4.5 ms, 4 EPI segments and 32 non-collinear gradient directions with a single b value (1000 sec/mm^2) and two images with b value of 0 sec/mm^2 (referred to as b0). Geometrical parameters were: 24 slices of 0.5 mm thickness, matrix size of 128 × 128 and FOV of […]). The imaging protocol was repeated three times for signal averaging and to compensate for acquisition where significant head motion was observed. Image analysis included DTI analysis of the DW-EPI images to produce the mean diffusivity (MD) and fractional anisotropy (FA) indexed maps following a two-way ANOVA with Tukey post-hoc test.

Adnp+/- mice [6] = experiment: Hanging wire test; assay type: in vivo, mouse; details: significant vs vehicle
Protocol: as §1

Adnp deficiency in mice = tested on: Adnp deficiency in mice; parameters: method as in PMID 26782054; details: cited from earlier work

Substance: NAPVSIPQ
- total odor sniffing time (AUC) (Adnp+/- mice [1]; female Adnp+/- mice, NAP vs CB vehicle, p < 0.05): significantly reduced
- odor discrimination ability (novel vs. familiar odor), differences between experimental groups (Adnp+/- mice [1]; females (Supplemental Fig. S2E)): no significant differences
- total time spent with the different odors (AUC) (Adnp+/- mice [1]; male Adnp+/- mice, NAP vs CB vehicle, p < 0.05): significantly increased
- odor discrimination ability (novel vs. familiar odor), differences between experimental groups (Adnp+/- mice [1]; males): no significant differences were observed between experimental groups
- cognitive scores (patients; amnestic mild cognitive impairment patients): increase in cognitive scores
- functional activities of daily living (patients; schizophrenia patients): protection of functional activities of daily living
- efficacy in progressive supranuclear palsy (PSP) (patients; severely affected individuals suffering from PSP): did not show efficacy
- social recognition, sniffing time mouse vs cup (Adnp+/- mice [2]; NAP-treated Adnp+/- male mice, p < 0.001 vs. cup): significant differences between sniffing time of the cup (c) and mouse (M)
- social memory (D2, novel vs familiar mouse) (Adnp+/- mice [2]; female Adnp+/- mice, n = 3-4 per group, p < 0.001 vs vehicle (Supplemental Fig. S2D)): improved social memory
- social recognition, preference mouse vs object (Adnp+/- mice [2]; females (Supplemental Fig. S2C), n = 3-4 per group): significant preference to mice rather than objects
- object recognition, relative discrimination, short and long retention choice phases, NAP- vs CB-treated (Adnp+/- mice [3]): no significant differences
- VGLUT1 protein, intensity (Integrated Density), cortex (VGLUT1): trend of improvement
- VGLUT1 protein, area counting (area/mm^2), hippocampus (VGLUT1; five animals per group, technical replicates, p < 0.001 vs CB): full protection
- VGLUT1 protein, area counting (area/mm^2), cerebral cortex (VGLUT1; five animals per group, technical replicates, p < 0.05 vs CB): full protection
- VGLUT1 protein, intensity (Integrated Density), hippocampus (VGLUT1; p < 0.001 vs CB): significant
- cerebral cortex VGLUT1 expression (reduced in Adnp+/-) ([4]; female Adnp+/- mice, n = 3-4 per group (Supplemental Fig. S4B)): no effect
- hippocampal VGLUT1 gene expression ([4]; females, n = 3-4 per group (Supplemental Fig. S4A)): not affected
- VGLUT1 transcript, cerebral cortex ([4]; male Adnp+/- mice, 2^-ΔCT normalized to Hprt, n = 4 per group): small, albeit significant decrease
- Slc17a7 (VGLUT1) gene expression, hippocampus (decrease in Adnp+/-) ([4]; male Adnp+/- mice, 7.5-month-old, 2^-ΔCT normalized to Hprt, n = 4 per group): completely reversed
- hippocampal mean diffusivity (MD), NAP- vs CB-treated ([5]; male Adnp+/+ mice (Supplemental Fig. S3A)): no significant differences in MD
- hippocampal fractional anisotropy (FA) ([5]; male Adnp+/+ mice (Supplemental Fig. S3B)): not affected
- hippocampal mean diffusivity (MD), effect on increase in Adnp+/- ([5]; male Adnp+/- mice, 7-8 months old, -1.84 mm from Bregma, n = 4-6 per group): although insignificant, was slightly reduced
- hanging wire test, latency to fall (Adnp+/- mice [6]; female Adnp+/- mice (Supplemental Fig. S2F)): ameliorating this behavior
- hanging wire test, latency to fall (Adnp+/- mice [6]; male Adnp+/- mice, maximum time 90 sec): amelioration

Substance: SKIP
- impaired axonal transport (Adnp deficiency in mice): ameliorated
